Test [1] concerns HCS imaging, dynein-mediated cargo transport inhibition. Description: blockers of dynein-driven microtubule transport – imaging, high-content imaging, dose response (AID 463136).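 Note: mouse mammary adenocarcinoma 3617.4 cells expressing GFP-tagged rat glucocorticoid receptor.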
Assay in test [2]: as above
The following applies: HCS imaging, dynein-mediated cargo transport inhibition; inhibition at max concentration; at 50 µM; stronger effect = higher value.

The IC50 is the concentration at which inhibition is half-maximal. In general, inhibition refers to the relative decrease from the control value, in per cent.

Records with an inconclusive call do not appear. The source made the active and inactive calls. The rule behind the calls is not given here. A value given as a limit tells only on which side of the number the result lay.

Regarding `O=c1c(Cl)c(Cl)cnn1Cc1ccccc1Cl`, the half-inhibitory concentration (IC50) in test [1] was 23.8 µM. Besides, the inhibition in test [2] worked out at 51.4%.
Consider `O=C(/C=C/c1ccccc1)/C=C/c1ccccc1`, for which the IC50 in test [1] is > 50 µM (inactive). Moreover, the inhibition in test [2] was 45.9%.
Take `COc1cccc(N(C(=O)CCl)C(C(=O)NCCc2ccccc2)c2cccs2)c1` (stereo not given): in test [1], the concentration for half-maximal inhibition (IC50) was 27.1 µM. Moreover, the inhibition in test [2] was 85.4%.
The like results for `COc1ccc(CN(CCC(c2ccccc2)c2ccc(OC(C)C)cc2)C(=O)CCl)cc1OC` (stereo not given) were, in that order, > 50 µM (inactive) and 34.9%.
In the case of `COc1ccc(-c2csc3nc(-c4cccnc4)nc(Cl)c23)cc1OC`, the half-maximal inhibitory concentration (IC50) in test [1] was 27.5 µM. The inhibition in test [2] was determined as 84.4%.
For `N#C/C(=C/c1ccc(N2CCCCCC2)o1)c1ccc(F)cc1` the same measures were > 50 µM (inactive) and 33.8%.
As for `O=C(CCl)Nc1ccc(-c2ccccc2)cc1`, the IC50 in test [1] is 14.3 µM. Moreover, the inhibition in test [2] is 66%.
For the compound `CCOC(=O)C(=Cc1cc(=O)c(OC)co1)C(=O)OCC`, the IC50 in test [1] is 6.45 µM. Besides, in test [2], the inhibition was found to be 87.9%.
For `COC(=O)c1cc(=O)n(Cc2cccs2)c(=Nc2ccccc2)s1` the same measures were > 50 µM (inactive) and 32.2%.
On to `O=C(Nc1ccccc1)c1nnsc1S(=O)c1ccc(Cl)cc1` (stereo not given), for which the IC50 in test [1] was > 50 µM (inactive). In addition, the inhibition in test [2] is 32.1%.
The like results for `CCOC(=O)c1c(NC(=S)N2CCOCC2)sc2c1CCN(C(=O)OCC)C2` were, in that order, 33.2 µM and 74%.
`CCOC(=O)c1c(NC(=O)/C=C/C(=O)O)sc(C)c1-c1ccc(Cl)cc1`: in test [1], the IC50 is 9.7 µM. Further, in test [2], the inhibition worked out at 93.3%.
As to `COc1ccccc1-[n+]1c(C)cc(/C=C2\Sc3ccccc3N2C)cc1C`, in test [1], the IC50 was 9.31 µM. Moreover, the inhibition in test [2] is 92%.
Take `CCOC(=O)c1cn(-c2c(Cl)cccc2Cl)c2cc(Cl)c([N+](=O)[O-])cc2c1=O`: in test [1], the IC50 is 29 µM. In test [2], the inhibition amounted to 82.8%.
Turning to `O=[N+]([O-])c1ccc(N/N=C/c2c[nH]c3ccccc23)cc1`, the IC50 in test [1] is 21.7 µM. Further, the inhibition in test [2] stood at 118%.
Regarding `CC[n+]1c(/C=C/C=C/N(C(C)=O)c2ccccc2)sc2ccccc21`, the IC50 in test [1] is 1.08 µM. The inhibition in test [2] is 99.6%.
The like results for `CCC(=O)Nc1cccc(C(=O)/C=C/c2ccc(F)cc2)c1` were, in that order, 34.1 µM and 74.9%.
As for `O=C(/C(=C/c1ccc(Cl)cc1)c1nc2ccccc2[nH]1)c1cccs1`, the IC50 in test [1] was 24.9 µM. The inhibition in test [2] came to 81.7%.
For `N#C/C(=C/c1ccc(N2CCCCCC2)o1)c1ccc(Cl)cc1` the same measures were > 50 µM (inactive) and 23.1%.
On to `CCCn1c(CC)nc([N+](=O)[O-])c1S(=O)(=O)c1ccccc1`, for which the IC50 in test [1] was 7.21 µM. Moreover, the inhibition in test [2] is 85.2%.
Regarding `O=C1CN(C(=O)Cn2ncc(Cl)c(Cl)c2=O)c2ccccc2N1`, in test [1], the concentration for half-maximal inhibition (IC50) was 9.46 µM. The inhibition in test [2] is 76.5%.
As to `CC(=O)OCCCNc1cc(SCc2ccco2)c2nonc2c1[N+](=O)[O-]`, the concentration for half-maximal inhibition (IC50) in test [1] is 35.1 µM. The inhibition in test [2] amounted to 67.7%.
On to `O=[N+]([O-])c1ccc(N/N=C/c2ccc[nH]2)cc1`, for which, in test [1], the 50% inhibitory concentration (IC50) was 18 µM. In addition, the inhibition in test [2] came to 148%.
Consider `CC(C)N1C/C(=C/c2cccnc2)C(=O)/C(=C/c2cccnc2)C1`, for which the concentration for half-maximal inhibition (IC50) in test [1] was 8.41 µM. The inhibition in test [2] is 83%.
The like results for `C#CC(=O)N(c1cccc(OC)c1)C(C(=O)NC1CCCC1)c1cccs1` (stereo not given) were, in that order, > 50 µM (inactive) and 16.5%.
Turning to `COc1cccc(N2C(=O)NC(=O)/C(=C\c3ccc([N+](=O)[O-])s3)C2=O)c1`, the half-maximal inhibitory concentration (IC50) in test [1] was 13.5 µM. For the same compound, in test [2], the inhibition was 85.4%.
The like results for `O=C1C=C(c2ccc(Cl)cc2)C(=O)N1Nc1ccccc1` were, in that order, 39.3 µM and 75.7%.
Regarding `CS(=O)(=O)c1cc([N+](=O)[O-])c(Sc2nc3ccccc3[nH]2)c([N+](=O)[O-])c1`, the IC50 in test [1] was > 50 µM (inactive). In addition, in test [2], the inhibition amounted to 22.9%.
As for `O=C(CCl)N1N=C(c2cccs2)CC1c1ccco1` (stereo not given), in test [1], the IC50 was > 50 µM (inactive). Moreover, the inhibition in test [2] was determined as 47.6%.
As for `Cc1ccc(C(=O)NC(C#N)=C(Cl)Cl)cc1`, in test [1], the IC50 is 6.71 µM. The inhibition in test [2] came to 82.3%.
`O=C(Cn1ncc(Cl)c(Cl)c1=O)N1CCN(S(=O)(=O)c2ccc3ccccc3c2)CC1`: the 50% inhibitory concentration (IC50) in test [1] was 24.1 µM. In test [2], the inhibition came out at 65.1%.
For `O=[N+]([O-])c1c(NCCCO)cc(Sc2nc3ccccc3s2)c2nonc12` the same measures were > 50 µM (inactive) and -7.73%.
Turning to `COc1ccc2c(c1)c1ccc3c(c1n2C)C(=O)C=CC3=O`, in test [1], the IC50 is 14.5 µM. For the same compound, the inhibition in test [2] turned out to be 93.1%.
As to `Cc1ccc(NC(=O)CCl)cc1S(=O)(=O)N1CCCCCC1`, in test [1], the IC50 was 10.6 µM. In test [2], the inhibition stood at 88.6%.
Regarding `CCOC(=O)N1C/C(=C\c2ccccc2)C(=O)/C(=C/c2ccccc2)C1`, the IC50 in test [1] is 32.8 µM. The inhibition in test [2] was found to be 78.7%.

The values are drawn from PubChem BioAssay AID463136 (University of Pittsburgh Molecular Library Screening Center, 2010).
